In patent US10285966B2, “10-hydroxy-cis-12-octadecenoic acid alkyl ester and use thereof” (NITTO PHARMACEUTICAL INDUSTRIES, LTD., priority 2015, dated 2019):

Test: State (liquid or solid) at ambient temperature by visual observation
Assay type: physicochemical
Conditions: for State at standard temperature: Table 1; for liquid or solid at ambient temperature: ambient temperature (about 15-25° C.), visual observation
Description: The compounds (1)-(3) of the present invention are desirably liquid at ambient temperature. In the present specification, the ambient temperature refers to the ambient temperature (15° C.-25° C.) defined in the Japanese Pharmacopoeia, 16th edition, General Rules, the Japanese Pharmacopoeia, 17th edition, General Rules. In addition, “about” here means ±1° C.
Whether the compounds of Examples 1 and 2 and HYA of Comparative Example are liquid or solid at ambient temperature (about 15-25° C.) was confirmed by visual observation.

| SMILES | State at standard temperature | liquid or solid at ambient temperature |
| --- | --- | --- |
| CCCCC/C=C\CC(O)CCCCCCCCC(=O)OCC (stereo not drawn) [Example 1, ethyl 10-hydroxy-cis-12-octadecenoate] | liquid | liquid |
| CCCCC/C=C\CC(O)CCCCCCCCC(=O)OCCC (stereo not drawn) [Example 2, propyl 10-hydroxy-cis-12-octadecenoate] |  | liquid |
| CCCCC/C=C\CC(O)CCCCCCCCC(=O)O (stereo not drawn) [HYA, 10-hydroxy-cis-12-octadecenoic acid] | solid | solid |
